# Assay results from patent US20050245600A1, “Novel antimalarial agent” (Osaka Bioscience Institute, priority 2002, published 2005).
# Where two headings read alike, the source gives them in different places.
# How the values were obtained:
# [1] = system: FCR3 strain (resistant to cycloguanyl) of Plasmodium falciparum; assay: Plasmodium falciparum growth inhibition (Giemsa smear count, 48 hours); format: cell-based; settings: for IC50: Table 3, read-out: P. falciparum (IC50, μg/mL)
# Method: FCR3 strain (resistant to cycloguanyl) of Plasmodium falciparum isolated in Gambia was used in the experiment to assess anti-malarial activity. Plasmodium falciparum synchronized to a ring phase by sorbitol treatment was injected in 50 μL 96 well plate. The hematocrit value of the culture liquid is 2% and the infection ratio was 0.55%. A substance to be tested was dissolved in DMSO and diluted with medium to an appropriate concentration before 50 μL of a test compound solution was added to the above 96 well plate to the total volume of 100 μL. The final concentration of DMSO added was 1%. Subsequently, after incubation was effected at 37° C. for 48 hours, a sumea film prepared on a slide glass was stained with Giemsa solution. The number of infected erythrocyte among 1000 erythrocytes was counted under an optical microscope. Percent inhibition of malaria parasite growth was calculated for percent infection obtained under the presence of DMSO only and that under the presence of the compound to be tested. Quinine was used as a positive control.
# human cancer cell KB3-1 = assay: KB3-1 cell growth inhibition (MTT) to examine toxicity; format: cell-based; settings: for IC50: Table 3, read-out: KB3-1 (IC50, μg/mL); for Selective toxicity: IC50 (KB3-1)/IC50 (P. falciparum)
# Method: To 100 μL (2×10^4/ml) of floating liquid of KB3-1 cells, 100 μL of test compound containing a liquid which was prepared by dissolving a test compound in DMSO and diluted to an appropriate concentration (final concentration of DMSO: 1%) was added. The mixture was incubated under 5% CO2 at 37° C. After 72 hours incubation, 25 μL of MTT reagent was added and incubation was effected for 3 hours before only medium was aspiratedly removed. To the medium 200 μL of DMSO was added, the resulting MTT folmazan was extracted and the amount of the dye was quantitatively measured by a calorimetric method (540 nm). The number of survival cell was counted from the amount of formed dye, and percent growth inhibition was determined to assess the toxic activity. Mitomycin C was used as a positive control.
# [2] = system: Plasmodium berghei (NK65 line); assay: In vivo antimalarial activity, four days inhibition effect in infected mouse; settings: ICR mouse; for Inhibition (%) / Averaged parasite blood (%): fourth day; for Averaged parasite blood (%): average ± SD of 5 mice
# Method: Four weeks old male mouse was bred at 25° C. under the condition of 12 hours light and 12 hours dark, and used in the assay.
# Blood was corrected with a syringe from the heart of a donor mouse with 15 % of parasitaemia. To this blood, trisodium citrate aqueous solution was added in one seventh by volume to prevent coagulation of blood. The resulting solution was diluted with 0.9% aqueous sodium chloride solution so that the final concentration of infected blood cells is 1×10^7 per 0.2 ml. […]
# To mouse (one group: 5), 0.2 ml of the infected erythrocytes was administered through tail vein. After 2 hours, the CMC solution (0.2 ml) of the respective concentration prepared above was orally administered. Starting with this time as 0 day, the solution was administered every day till a third day and infection ratio was examined on a fourth day. The infection ratio was determined by collecting blood from mouse tail, preparing smear, and counting infected erythrocytes using a microscope. The infection ratio of control mouse (5 infected mice administered only by the 0.5% CMC solution) was about 28% on the fourth day.
# Percent growth inhibition of parasites by test compound was calculated from the following formula: Percent growth inhibition of parasites=(1−averaged infection ratio of mice treated with test compound/averaged infection ratio of control mice)×100
# Life prolonging effect by test compound (T/C) was calculated from the following equation. Life Prolonging Effect (T/C)=averaged number of subsistence days of mouse treated by test compound/averaged number of subsistence days of control mouse
# [3] = 25 mg/kg oral, day 0 to third day
# [4] = 50 mg/kg oral, day 0 to third day
# [5] = 100 mg/kg oral, day 0 to third day
# [6] = 200 mg/kg oral, day 0 to third day
smiles,measurement,setting,value
"O=C1c2c(O)cc(O)c([C@@H]3C(=O)c4c(O)cc(O)cc4O[C@H]3c3ccc(O)cc3)c2O[C@H](c2ccc(O)cc2)[C@H]1O [GK-4, 2R,3S,2′S,3′R-5,7,3′,5′,7′-pentahydroxy-2,2′-bis-(4-hydroxyphenyl)-2,3,2′,3′-tetrahydro-[3,8′]bichromenyl-4,4′-dione]",IC50,[1],1.1 µg/mL
same,IC50,"human cancer cell KB3-1; Homo sapiens, KB 3-1",> 100 µg/mL
same,Selective toxicity,human cancer cell KB3-1,>91
"O=C1C[C@@H](c2ccc(O)cc2)Oc2c1c(O)cc(O)c2[C@H]1C(=O)c2c(O)cc(O)cc2O[C@@H]1c1ccc(O)cc1 [GK-1, 2S,3R,2′S-5,7,5′,7′-tetrahydroxy-2,2′-bis-(4-hydroxyphenyl)-2,3,2′,3′-tetrahydoro-[3,8′]bichromenyl-4,4′-dione]",IC50,[1],0.35 µg/mL
same,IC50,"human cancer cell KB3-1; Homo sapiens, KB 3-1",27 µg/mL
same,Selective toxicity,human cancer cell KB3-1,77
"C[C@@H]1CC[C@H]2[C@@H](C)C(=O)O[C@@H]3O[C@@]4(C)CC[C@@H]1[C@]32OO4 [artemisinin, reference compound]",Averaged subsistence days,[2]; 15 mg/kg,10.3 ± 2.3 days
same,T/C (life prolonging effect),[2]; 15 mg/kg,129
same,Inhibition (%),[2]; 15 mg/kg,54%
same,Averaged parasite blood (%),[2]; 15 mg/kg,13.3 ± 1.6%
"O=C1c2c(O)cc(O)cc2O[C@H](c2ccc(O)cc2)[C@H]1c1c(O)cc(O)c2c1O[C@H](c1ccc(O)cc1)[C@@H](O)C2=O [GK-2, 2S,3R,2′S,3′R-5,7,3′,5′,7′-pentahydroxy-2,2′-bis-(4-hydroxyphenyl)-2,3,2′,3′-tetrahydro-[3,8′]bichromenyl-4,4′-dione]",inhibition at 0.5 µg/mL,"[1]; Table 2, 0.5 μg/mL, read-out: Inhibition of P. falciparum %",70%
same,inhibition at 5 µg/mL,"[1]; Table 2, 5 μg/mL, read-out: Inhibition of P. falciparum %",65%
same,IC50,[1],0.09 µg/mL
same,inhibition at 5 µg/mL,"human cancer cell KB3-1; Homo sapiens, KB 3-1, Table 2, 5 μg/mL",22%
same,inhibition at 50 µg/mL,"human cancer cell KB3-1; Homo sapiens, KB 3-1, Table 2, 50 μg/mL",10%
same,IC50,"human cancer cell KB3-1; Homo sapiens, KB 3-1",> 100 µg/mL
same,Selective toxicity,human cancer cell KB3-1,>1100
same,Averaged subsistence days,[2]; [3],9.5 ± 1.7 days
same,T/C (life prolonging effect),[2]; [3],119
same,Inhibition (%),[2]; [3],40%
same,Averaged parasite blood (%),[2]; [3],17.3 ± 3.4%
same,Averaged subsistence days,[2]; [4],10.0 ± 0.0 days
same,T/C (life prolonging effect),[2]; [4],125
same,Inhibition (%),[2]; [4],43%
same,Averaged parasite blood (%),[2]; [4],16.6 ± 2.4%
same,Averaged subsistence days,[2]; [5],10.0 ± 0.0 days
same,T/C (life prolonging effect),[2]; [5],125
same,Inhibition (%),[2]; [5],52%
same,Averaged parasite blood (%),[2]; [5],13.9 ± 2.4%
same,Averaged subsistence days,[2]; [6],11.0 ± 0.7 days
same,T/C (life prolonging effect),[2]; [6],134
same,Inhibition (%),[2]; [6],60%
same,Averaged parasite blood (%),[2]; [6],11.5 ± 1.2%
"C=C[C@H]1C[N@@]2CC[C@H]1C[C@H]2[C@H](O)c1ccnc2ccc(OC)cc12 [quinine, reference compound]",inhibition at 0.033 µg/mL,"[1]; Table 1 control, 33 ng/mL, read-out: P. falciparum Growth Inhibition (%)",73%
same,inhibition at 0.1 µg/mL,"[1]; Table 1 control, 100 ng/mL, read-out: P. falciparum Growth Inhibition (%)",90%
same,inhibition at 0.033 µg/mL,"[1]; Table 2 control, 0.033 μg/mL, read-out: Inhibition of P. falciparum %",62%
same,inhibition at 0.1 µg/mL,"[1]; Table 2 control, 0.1 μg/mL, read-out: Inhibition of P. falciparum %",90%
same,inhibition at 0.033 µg/mL,"[1]; Table 3 control, 0.033 μg/mL, read-out: P. falciparum inhibition",36%
same,inhibition at 0.1 µg/mL,"[1]; Table 3 control, 0.1 μg/mL, read-out: P. falciparum inhibition",82%
"O=C1c2c(O)cc(O)cc2O[C@H](c2ccc(O)cc2)[C@H]1c1c(O)cc(O)c2c1O[C@H](c1ccc(O)c(O)c1)[C@@H](O)C2=O [GK-3, 2S,3R,2′S,3′R-2′-(3,4-dihydroxyphenyl)-5,7,3′,5′,7′-pentahydroxy-2-(4-hydroxyphenyl)-2,3,2′,3′-tetrahydro-[3,8′]bichromenyl-4,4′-dione]",IC50,[1],0.12 µg/mL
same,IC50,"human cancer cell KB3-1; Homo sapiens, KB 3-1",> 100 µg/mL
same,Selective toxicity,human cancer cell KB3-1,>830
